Assay results as given in US5369111A, “Modulator agent and use thereof” (University of Vermont, priority 1992, dated 1994).
Entries after “also recorded” stand apart in the source; their conditions may differ. Read-outs that look alike come from different tables or passages of the source.

Key:
[1] = test system: parental cell lines (S180, RCC-2, RCC-5); experiment: Modulation of intrinsic resistance in the parental cell lines (S180, RCC-2, RCC-5); assay type: cell-based, mouse, rat
Description: (§1) Mid-exponential cultures were used for all assays. The RCC-2 and RCC-5 cell lines were seeded into 24-well plates at 2×10^4 cells/well and allowed to attach to the substratum for 16-18 h prior to treatment. The S180 cell lines were seeded into culture tubes at 1×10^5 cells/ml and treated immediately. Cytotoxicity was determined by quantitation of population growth after 72 h incubation by electronic particle counter (Coulter Electronics, Hialeah, Fla.). The human tumor cell lines were used in a clonogenic assay for cytotoxicity. Cells were seeded at 300 cells/dish, incubated overnight and then treated. Colonies were scored 7-11 days later. In all assays of analog modulation of drug sensitivity, the analog was added minutes prior to the addition of cytotoxic drug.
(§2) *calculated as the IC50 of the drug alone divided by the IC50 o
(§3) the [drug modulator] combination. Data are presented from tretments with
(§4) the nontoxic concentration limit of each analog as noted.

[2] = Inhibition of population growth (cytotoxicity), rat colon adenocarcinoma RCC-5; assay type: cell-based; conditions: rat, rcc-5 cells; RCC-5; Table III; read-out: Modulator concentration (nontoxic concentration limit of the analog)
Description: (§5) The analogs were examined in a panel of tumor cell lines of both intrinsic and acquired drug resistance, as described in Table 1. The rat colon adenocarcinoma cell lines RCC-2 and RCC-5 (ref. 13) were maintained in Ham's F12 medium supplemented with 5% heat-inactivated, fetal bovine serum (Sterile Systems. Hyclone, Logan, Utah). The two rat colon cancer cell lines differ in their degree of cellular differentiation; whereas the RCC-2 cell line is undifferentiated, the RCC-5 cell line is highly mucinous. The human epidermoid carcinoma cell line KB-3-1 and its MDR variant KB-Vl, selected by VBL treatment (ref. 14; courtesy of M. Gottesman. National Cancer Institute), was maintained in DMEM medium supplemented with 10%, heat-inactivated, fetal bovine serum. The murine sarcoma cell line […] and its MDR strains A3 and A10 selected by ADM treatment (ref. 15; courtesy of T. Tritton, Dept. Pharmacology, Univ. Vermont). were maintained in DMEM medium supplemented with 10% heat-inactivated, horse serum (Hazelton Biolog. Lenexa, Kans.). Stock cultures were subcultured twice weekly upon reaching the late exponential phase of population growth: population doubling times were 18-24 h. Antibiotics were not used in stock or experimental cultures. The MDR cell strains were grown in drug-free media for 48 h prior to experimental use.
as §1

S180/A10 cells = experiment: Modulator potency in MDR cells: reversal of acquired resistance, S180/A10; assay type: cell-based, murine; conditions: for Modulator potency in MDR cells (minimal concentration restoring parental drug sensitivity), ADM: drug resistance level 90; for Modulator potency in MDR cells (minimal concentration restoring parental drug sensitivity), VBL: drug resistance level 10
Description: as §1
(§6) To evaluate the ability of vindoline and the two diastereoisomeric VBL analogs to modulate the MDR phenotype (acquired resistance) of the A3 and A10 cell stains, we determined the concentration of compound required to restore drug sensitivities to parental levels. This was done by exposing the MDR cell line to a concentration range of modulator in the presence VBL, VCR and ADM at the respective IC70s of the parental cell line. The cytotoxicity curves for A3 and A10 cells, shown in FIG. 5, are distinctive among the three vinca alkaloids examined. In each cell line, there was a minimum concentration of modulator that elicited 70% growth inhibition for each drug - i.e. the reversing concentration.
(§7) *The minimal concentration of modulator required to restore the drug
(§8) sensitivity of S180/MDR cell strains to that of parental S180 cells. Data
(§9) are the averages of 2-3 separate experiments, S.D. ≤20%.

RCC-2 cells = experiment: Modulation of intrinsic drug resistance, RCC-2; assay type: cell-based, rat; conditions: IC50 drug alone / IC50 drug + modulator, at nontoxic concentration limit
Description: as §1, §2, §3, §4

[3] = test system: S180 MDR cell strains A3 and A10; experiment: Modulation of acquired drug resistance in the S180 MDR cell strains A3 and A10; assay type: cell-based, murine
Description: as §1, §6
FIG. 5 represents the modulation of multidrug resistance in the MDR cell strains by the vinca alkaloids. Vindoline (A), vincovaline (B), or the analog C-20'-deoxy vincovaline (C) was added, at various concentrations, to A3 (closed symbols) or A10 (opened symbols) cell cultures containing the parental IC70 of each drug: 2.0×10^-7 M. ADM (circles: 1.5×10^-8 M VBL (triangles); and 4.5×10^-8 M; VCR (squares). Population growth was determined 72 hours later.
FIG. 6 represents the relationship between cellular drug resistance level and the minimal modulator concentration required for complete reversal of drug resistance. The drugs examined were ADM (o), VBL (Δ), and VCR (.quadrature.). The amount (concentration) of modulator, necessary to reverse each level of drug resistance contained in the A3 and A10 cell lines, was determined from data such as those of FIG. 5. The values presented were averaged from duplicate samples of two separate experiments, S.D.<15% of the mean. The arrows denote the non-toxic concentration limit for the modulator; in the case of Vincovaline this value is dependent on the MDR cell strain, 2×10^-5 M, A3; 5×10^-5 M. A10.
FIG. 11 represents the modulation of multidrug resistance in the S180 MDR cell strains A3 and A10. The cellular drug resistance level is plotted against the minimal concentration of C-20'-deoxy deethyl vincovaline required for the complete reversal of drug resistance to ADM (o), VBL (Δ), and VCR (.quadrature.). In the case of high level ADM resistance […], the sensitivity of the cells was restored to 80% of the parental value. The arrow denotes the non-toxic concentration limit of the analog.

S180/A3 cells = experiment: Modulator potency in MDR cells: reversal of acquired resistance, S180/A3; assay type: cell-based, murine; conditions: for Modulator potency in MDR cells (minimal concentration restoring parental drug sensitivity), VBL: drug resistance level 3; for Modulator potency in MDR cells (minimal concentration restoring parental drug sensitivity), VCR: drug resistance level 7
Description: as §1, §6, §7, §8, §9

[4] = Inhibition of population growth (cytotoxicity), rat colon adenocarcinoma RCC-2; assay type: cell-based; conditions: rat, rcc-2 cells; RCC-2; Table III; read-out: Modulator concentration (nontoxic concentration limit of the analog)
Description: as §5, §1

S180 cells, parental = experiment: Modulation of intrinsic drug resistance, parental S180; assay type: cell-based, murine; conditions: for Maximum sensitization of parental cells by modulator, drug ADM / Maximum sensitization of parental cells by modulator, drug VBL / Maximum sensitization of parental cells by modulator, drug VCR: S180, IC50 drug alone / IC50 drug + modulator, at nontoxic concentration limit; for modulation of sensitivity of parental S180 cells to VBL, VCR and ADM (in words): all three drugs
Description: as §1
The ability of the compounds to modulate drug sensitivity in parental cells was studied over a range of concentrations of each compound, from 10^-6 M to the non-toxic (IC10-20) or solubility limit. […] From such experiments, we determined a sensitivity index derived from the IC50 of the drug without modulator treatment divided by the drug IC50 at each concentration of modulator.
When the sensitivity index for each drug, VBL, VCR and ADM is plotted versus the modulator concentration (FIG. 4), we can compare the relative potencies of the compounds as modulators of drug toxicity to the parental S180 cells.
as §2, §3
FIG. 4 represents the potency of the vinca alkaloid compounds as modulators of drug sensitivity in S180 cells. The enhancement of sensitivity was calculated as the sensitivity index=IC50 of the drug alone divided by the IC50 of the drug+modulator. The IC50s for ADM (o) VBL (Δ), or VCR (.quadrature.) were determined over a concentration range of each modulator from data such as those depicted in FIG. 3. The values presented were averaged from duplicate samples of two separate experiments, S.D. <15% of the mean.

[5] = test system: S180/MDR cell system and rat colon cancer cell lines; experiment: Cytotoxicity in the S180/MDR cell system and the rat colon cancer cell lines; assay type: cell-based, mouse; conditions: S-180, 72 h
Description: as §5, §1

[6] = Inhibition of population growth (cytotoxicity), S180 sarcoma, parental; assay type: cell-based, mouse; conditions: mouse, s180 cells; S180; Table III; read-out: Modulator concentration (nontoxic concentration limit of the analog)
Description: as §5, §1

RCC-5 cells = experiment: Modulation of intrinsic drug resistance, RCC-5; assay type: cell-based, rat; conditions: RCC-5; IC50 drug alone / IC50 drug + modulator, at nontoxic concentration limit
Description: as §1, §2, §3, §4
FIG. 9 represents the modulation of VCR sensitivity in the RCC-12 (A) and RCC-5 (B) cell lines by the analog C-20'-deoxy deethyl vincovaline. Population growth was determined after 72 hours incubation in the absence (o), or presence of 10 μM (o), 20 μM (Δ), or 50 μM of analog. Data presented are from a typical experiment.

[7] = test system: S180 cell system (S180, A3, A10); experiment: Inherent cytotoxicity in the S180 cell system (S180, A3, A10); assay type: cell-based, murine
Description: as §5, §1
FIG. 2 represents the toxicity of the vinca alkaloid compounds to population growth. Vindoline, vincovaline or the analog, C-20'-deoxy vincovaline was added, at various concentrations, to S180 (.cndot.), A3 (o), or A10 (Δ) cell cultures. The population cell number was determined 72 hours later.

| SMILES | modulation of intrinsic cellular resistance to ADM and/or VCR (in words) [1] | effect on the sensitivity of parental cells to VBL (in words) [1] | MNTC at 72 h [2] [µM] | Modulator potency in MDR cells (minimal concentration restoring parental drug sensitivity), ADM (S180/A10 cells) | Modulator potency in MDR cells (minimal concentration restoring parental drug sensitivity), VBL (S180/A10 cells) [μM] | Maximum sensitization of parental cells by modulator, drug VCR (RCC-2 cells) | restoration of parental drug sensitivity in MDR cells (in words) ([3]; VBL, VCR, ADM) | Modulator potency in MDR cells (minimal concentration restoring parental drug sensitivity), VBL (S180/A3 cells) [µM] | Modulator potency in MDR cells (minimal concentration restoring parental drug sensitivity), VCR (S180/A3 cells) [μM] | MNTC at 72 h [4] [µM] | Maximum sensitization of parental cells by modulator, drug ADM (S180 cells, parental) | Maximum sensitization of parental cells by modulator, drug VBL (S180 cells, parental) | Maximum sensitization of parental cells by modulator, drug VCR (S180 cells, parental) | IC50 [5] [µM] | MNTC at 72 h [6] [µM] | Maximum sensitization of parental cells by modulator, drug ADM (RCC-5 cells) | Maximum sensitization of parental cells by modulator, drug VBL (RCC-5 cells) | Maximum sensitization of parental cells by modulator, drug VCR (RCC-5 cells) | also measured |
| --- | --- | --- | --- | --- | --- | --- | --- | --- | --- | --- | --- | --- | --- | --- | --- | --- | --- | --- | --- |
| CC[C@]12C=CCN3CC[C@@]4(c5cc([C@@]6(C(=O)OC)C[C@H]7CCCN(CCc8c6[nH]c6ccccc86)C7)c(OC)cc5N(C)[C@H]4[C@@](O)(C(=O)OC)[C@@H]1OC(C)=O)[C@@H]32 [analog n° 330, C-14'-epi-C-20'-deethyl C-20'-deoxy-vinblastine] | modulated intrinsic cellular resistance to ADM and/or VCR | less effect on the sensitivity of parental cells to VBL | 10 | no effect | 18. | 2.0 | full restoration of parental drug sensitivity was achieved for VBL and low level VCR resistance, only | 5.2 | 11. | 10 | 4.2 | 1.0 | 2.0 | ≥ 5 | 20 | 2.2 | 2.0 | 6.0 | Maximum sensitization of parental cells by modulator, drug ADM (RCC-2 cells): 1.0 |
| CC[C@]12C=CCN3CC[C@@]4(c5cc([C@]6(C(=O)OC)C[C@@H]7CCCN(CCc8c6[nH]c6ccccc86)C7)c(OC)cc5N(C)[C@H]4[C@@](O)(C(=O)OC)[C@@H]1OC(C)=O)[C@@H]32 [analog n° 331, C-16' epi-C-20'-deoxy-C-20'-deethylvinblastine] | modulated intrinsic cellular resistance to ADM and/or VCR | less effect on the sensitivity of parental cells to VBL | 20 | no effect | 34. | 2.0 | full restoration of parental drug sensitivity was achieved for VBL and low level VCR resistance, only | 5.0 | 10. | 10 | 3.4 | 1.0 | 2.5 | ≥ 5 | 50 | 3.5 | 1.0 | 2.0 |  |
| CCC12C=CCN3CC[C@@]4(c5ccc(OC)cc5N(C)[C@H]4[C@@](O)(C(=O)OC)[C@@H]1OC(C)=O)[C@@H]32 (stereo partly drawn) [vindoline, reference compound] |  |  |  |  |  |  |  |  |  |  |  |  |  |  |  |  |  |  | reversal of high level ADM resistance (in words) (S180/A10 cells; A10 cells, 90 fold ADM resistance): limited in this activity by their own cytoxicity in the MDR cell lines; modulation of cellular resistance to VBL, VCR and ADM in MDR cell strains (in words) ([3]; A3 and A10): modulators of cellular resistance to VBL, VCR and ADM; relation of reversing concentration to degree of drug resistance (in words) ([3]; A3 and A10, VBL, VCR, ADM): This correllation was not observed; inherent cytotoxicity / resistance profile (in words) [7]: equitoxic to parental and MDR cell lines; IC50 ([7]; Mus musculus, S-180, S180 parental and MDR cell lines, read-out: IC50 (inhibition of cell growth)): 40 µM; inherent cytotoxicity / resistance profile (in words) ([7]; S180, A3, A10): inhibited the growth of the parental and MDR cell strains with a similar dependence on concentration; modulation of sensitivity of parental S180 cells to VBL, VCR and ADM (in words) (S180 cells, parental): sensitized S180 cells to all three drugs with a similar dependence on its concentration; also recorded: sensitized the parental S180 cells to all three drugs; modulation of sensitivity of parental S180 cells to VBL, VCR and ADM (in words) (S180 cells, parental; listed as Vindoline): no evidence of selective modulation |
